Key:
whole milk folate binder = whole milk folate binder (Bos taurus, UniProt P02702); assay: Competitive protein binding (CPB) radioassay for folates using pteroyltyrosine [125I] as radiolabel; conditions: for coincidence of dose response curves generated using pteroyltyrosine [125I] as label: high pH versus lower pH
Protocol: The use of the Centria® analytical system, Union Carbide Corporation, in this example, is meant to be illustrative and other methods, both automated and manual, obvious to those skilled in the clinical diagnostic art are also within the scope of this invention.
Briefly, the Centria® system is a tri-modular instrument in which reagents are pipetted on to a multiwell transfer disk and mixed centrifugally with standards or patients' samples. After a suitable incubation period, the components are separated by a centrifugal elution of the bound and free fractions and the bound fractions counted three at a time.
Folic acid and N^5 -methyltetrahydrofolic acid standards in the range 0-20 nanograms/milliliter were prepared in 0.05 M sodium borate, pH 9.3 containing 0.1% human serum albumin. The whole milk binder was prepared according to the method of Rothenberg et al., (3) and dissolved in sodium borate, pH 9.3 containing 0.1% human serum albumin.
(50 microliters, 20,000 cpm) plus 85 microliters of water with the limited number of binding sites contained in a 200 microliter solution of whole milk folate binder. The binding reactions may be shown as follows:
A gamma counter which counts three of the 36 positions at a time for one minute, so constructed that only the eluate bottom portion of the test tubes fits into the counter, was then used to count all samples. Sequential counting of the tubes thus required about 12 minutes. A small computer with printout capability then printed out the data after completion of the cycle.

carboxypeptidase A = assay: Enzymatic hydrolysis of pteroyltyrosine followed spectrophotometrically (uv); format: biochemical; conditions: 0.025 M Tris-HCl, 2 mM zinc chloride, pH 7.3, two hours at ambient temperature
Protocol: Two milliliters of a solution of pteroyltrosine (0.75 mmoles/ml) in 0.025 M Tris-HCl containing 2 mM zinc chloride, pH 7.3 were diluted to 10 ml with distilled water. A portion of this solution (2 ml) was placed in a 1 cm cuvette and in another was placed 2 ml of distilled water. To each of the cuvettes was added 50 μl of a solution of 100 μl carboxypeptidase A suspension (Aldrich chemical, lot 060637) diluted with 0.9 ml of 10% lithium chloride.
The time course of the reaction was followed spectrophotometrically (uv) over a period of two hours at ambient temperature. An increase and shift in max from 280 to 277 nm and a marked decrease in absorption at 220 nm was observed. Two isosbestic points at 242 and 282 nm were visible.

[1] = Storage stability of the radioiodinated product, judged by assay performance; format: physicochemical; conditions: stored in a 50% aqueous propylene glycol solution, ten-week period
Text: Radioiodination of biological compounds frequently leads to marked chemical instability and subsequent degradation of the radiolabel. This problem is often accentuated in the radiolabel when the materials to be radioiodinated are known to be sensitive to oxygen, light or extremes in pH, as is the case with folic acid and some derivatives.
The reaction mixture was applied to a 1×20 cm Sephadex G25, fine, (Pharmacia Fine Chemicals, Uppsala, Sweden) column hydrated with distilled water and equilibrated with 0.1 M potassium phosphate, pH 7.5. The column was eluted with 0.1 M potassium phosphate buffer and 3 ml fractions collected. The product "peak" fractions 32-34 were collected, diluted 1:1 with propylene glycol and stored below 0° C.

Sequence of whole milk folate binder (P02702 20-234): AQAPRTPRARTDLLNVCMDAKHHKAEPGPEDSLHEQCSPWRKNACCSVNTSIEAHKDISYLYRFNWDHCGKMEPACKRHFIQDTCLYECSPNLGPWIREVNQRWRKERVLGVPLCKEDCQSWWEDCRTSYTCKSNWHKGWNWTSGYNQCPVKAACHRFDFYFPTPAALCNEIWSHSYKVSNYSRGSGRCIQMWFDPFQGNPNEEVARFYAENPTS

SMILES: CN1c2c(O)nc(N)nc2NCC1CNc1ccc(C(=O)N[C@@H](CCC(=O)O)C(=O)O)cc1 (some centres unmarked) [N^5 -methyl THF, N-5-methyltetrahydrofolic acid]
- coincidence of dose response curves generated using pteroyltyrosine [125I] as label (whole milk folate binder): more nearly coincident than at lower pH

SMILES: Nc1nc2ncc(CNc3ccc(C(=O)N[C@@H](Cc4ccc(O)cc4)C(=O)O)cc3)nc2c(=O)[nH]1 [Pteroyltyrosine, Pteroyl-L-Tyrosine]
- final uv spectrum after treatment with carboxypeptidase A (carboxypeptidase A): very similar to that of pteroic acid

SMILES: Nc1nc2ncc(CNc3ccc(C(=O)N[C@@H](CCC(=O)O)C(=O)O)cc3)nc2c(=O)[nH]1 [folic acid, pteroylglutamic acid]
- coincidence of dose response curves generated using pteroyltyrosine [125I] as label (whole milk folate binder): more nearly coincident than at lower pH

SMILES: Nc1nc(O)c2nc(CNc3ccc(C(=O)N[C@@H](Cc4ccc(O)c([125I])c4)C(=O)O)cc3)cnc2n1 [pteroyltyrosine [^125 I]]
- deterioration in assay performance on storage [1]: no deterioration in assay performance over a ten-week period
- performance as radiolabel in CPB radioassay for folic acid (whole milk folate binder; folic acid concentration range 0-20 ng/ml): effective radiolabel in a sensitive CPB radioassay for folic acid

Reference: US4314988A, “Folic acid derivatives and process for preparation” (Baker Instruments Corp., priority 1979, dated 1982)
